The results in this text go back to patent US20220241249A1, “PHARMACEUTICAL COMPOSITION AND KIT CONTAINING NOVEL PENAM DERIVATIVE OR SALT THEREOF AND ONE OR MORE COMPOUNDS SELECTED FROM beta-LACTAMASE INHIBITORY COMPOUND AND ANTIBACTERIAL COMPOUND OR SALTS THEREOF” (priority 2019, published 2022).

In brackets after ≈: the same amount, converted by molar mass.

In assay [1] the test system is Klebsiella pneumoniae Y-1133 strain producing NDM-1, OXA-48, and CTX-M-15 (strain C). The experiment in a line: MIC of test compound alone or with β-lactamase inhibitor at 4 μg/mL. The format is cell-based. How it is done: (§1) By using a broth microdilution method, the combinational effect of a test compound and a β-lactamase inhibitor was evaluated.
(§2) The evaluation test for antibacterial activity was performed in the same manner as in Test Example 1.
Klebsiella pneumoniae Y-1133 strain producing NDM-1, OXA-48, and CTX-M-15 (hereinafter, called strain C),
(§3) An antibacterial activity evaluation test was performed in the same manner as in Test Example 6.
(§4) As the bacterial strain, the strains B, C, and D producing β-lactamase and a Klebsiella pneumoniae Y-1069 strain (hereinafter, called strain F) producing OXA-48 and CTX-M-15 were used.

Assay [2] has as its system Escherichia coli TK-1765 strain producing CMY-2 (strain E). Described as above. The format is cell-based. How it is done:
as §1, §2
Escherichia coli TK-1765 strain producing CMY-2 (hereinafter, called strain E)

In assay [3] the test system is Escherichia coli TK-3113 strain producing IMP-8 (strain D). The description is as above. The format is cell-based. The protocol:
as §1, §2
Escherichia coli TK-3113 strain producing IMP-8 (hereinafter, called strain D),
as §3, §4

Assay [4] deals with Klebsiella pneumoniae Y-1020 strain producing KPC-3 and SHV-12 (strain B). The description is as above. The format is cell-based. Conditions: for MIC: Strain B. The protocol:
as §1, §2

The test system of assay [5] is Pseudomonas aeruginosa ATCC27853 strain (Pseudomonas aeruginosa A). The experiment in a line: Combinational effect of test compound and antibacterial compound, checkerboard FIC index. It is filed as cell-based. Conditions: for FIC index: Pseudomonas aeruginosa A, checkerboard. How it is done:
(§5) By using a broth microdilution method, the combinational effect of antibacterial activity of a test compound and an antibacterial compound was evaluated.
(§6) As bacterial strains, an Escherichia coli ATCC25922 strain (hereinafter, called Escherichia coli A), a Klebsiella pneumoniae ATCC13883 strain (hereinafter, called Klebsiella pneumoniae A), and a Pseudomonas aeruginosa ATCC27853 strain (hereinafter, called Pseudomonas aeruginosa A) were used.
(§7) The minimum inhibitory concentration (hereinafter, called MIC) was measured according to the Clinical and Laboratory Standards Institute (CLSI) standard method by using the following broth microdilution method.
(§8) The bacterial cells that had been cultured overnight on a Mueller Hinton agar medium were scraped off, suspended at a density equivalent to 0.5 McFarland standard. The obtained suspension was diluted at 10 fold, thereby obtaining an inoculum. Cation-adjusted Mueller Hinton media containing only a test compound, containing only an antibacterial compound, or containing a test compound and an antibacterial compound were inoculated with 0.005 mL of the inoculum, and the cells were cultured at 35° C. for 18 to 20 hours. The minimum drug concentration at which the growth of bacteria was not visually observed was defined as MIC (μg/mL).
(§9) The FIC Index is the minimum value calculated by the following formula.
(§10) FIC Index=(MIC value obtained in a case where test compound is used in combination/MIC value obtained in a case where test compound is used alone)+(MIC value obtained in a case where antibacterial compound is used in combination/MIC value obtained in a case where antibacterial compound is used alone)
(§11) In a case where the FIC Index was 0.5 or less, it was decided that the use of two drugs in combination brings about a synergistic effect.
(§12) In a case where the FIC Index was more than 0.5 and 1 or less, it was decided that the use of two drugs in combination brings about an additive effect. (Diagnostic Microbiology and Infectious Disease, 2004, Vol. 49, p. 197)

The subject of assay [6] is Escherichia coli ATCC25922 strain (Escherichia coli A). Described as above. It is filed as cell-based. The protocol: as §5, §6, §7, §8, §9, §10, §11, §12
Assay [7] deals with Klebsiella pneumoniae ATCC13883 strain (Klebsiella pneumoniae A). Described as above. It is filed as cell-based. The protocol:
as §5, §6, §7, §8, §9, §10, §11, §12

Assay [8] has as its system Carbapenem-resistant Acinetobacter A515 strain. The experiment in a line: MIC of test compound combined with a plurality of β-lactamase inhibitors. It is filed as cell-based. Particulars: against all the bacterial strains (Acinetobacter A514 and A515); with SBT and AVI. The protocol: By using a broth microdilution method, the combinational effect of a test compound and a plurality of β-lactamase inhibitors was evaluated.
as §2
As bacterial strains, Carbapenem-resistant Acinetobacter A514 and A515 strains were used.

Assay [9] has as its system multidrug-resistant Pseudomonas aeruginosa strain (S-2838 strain). In words: Test for protection against systemic infection in mouse with multidrug-resistant Pseudomonas aeruginosa. It is filed as in vivo. Conditions: sc, 72 h, read-out: survival rate 3 days after the inoculation with bacteria. The protocol: As mice, ICR male SPF mice (4 weeks old: 10 mice per group) were used. Clinically isolated multidrug-resistant Pseudomonas aeruginosa strain (S-2838 strain) cultured overnight on a Mueller-Hinton agar plate at 37° C. was cultured on a cation-adjusted Mueller Hinton medium for 5 hours, and then diluted 20-fold with a 10% mucin/phosphate buffer, thereby preparing an inoculum. An infection was induced by intraperitoneally inoculating the mice with the inoculum at 0.5 mL (about 10^6 CFU/mouse). Each test compound was dissolved in physiological saline, and 1 hour after the infection, the compound was subcutaneously administered once to the mice at 40 mg/kg. The control group was administered with the same amount of physiological saline used as a vehicle. The number of surviving mice was recorded 3 days after the infection.
A test for protection against systemic infection in a mouse with multidrug-resistant Pseudomonas aeruginosa was performed in the same manner as in Test Example 2.

Assay [10] relates to OXA-48-containing Klebsiella pneumoniae strain (Y-1062). In words: Antibacterial activity evaluation test, MIC by broth microdilution (CLSI). The format is cell-based. Conditions: Klebsiella pneumoniae. Summed up: (§13)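 Cells scraped from overnight Mueller Hinton agar are brought to 0.5 McFarland density, then diluted tenfold. This inoculum is added to cation-adjusted medium with compound and cultured 16 to 20 hours at 35° C. before growth is scored by eye.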
For orientation: Broth dilution looks for growth in wells or tubes with falling amounts of substance.

For assay [11], the system named is AmpC-derepressed Pseudomonas aeruginosa mutant strain (S-3028). The description is as above. The format is cell-based. Conditions: Pseudomonas aeruginosa. A digest of the protocol: as §13
Assay [12] concerns KPC-2-containing Klebsiella pneumoniae strain (Y-995). The description is as above. Conditions: Klebsiella pneumoniae. The format is cell-based. A digest of the protocol: as §13
The test system of assay [13] is IMP-1-containing Pseudomonas aeruginosa strain (S-2838). The assay is described as above. It is filed as cell-based. Particulars: Pseudomonas aeruginosa. Summed up: as §13
The subject of assay [14] is NDM-1-containing Klebsiella pneumoniae strain (Y-1007). The assay is described as above. It is filed as cell-based. Conditions: Klebsiella pneumoniae. Summed up:
as §13

Assay [15] deals with GES-19 and GES-20-containing Pseudomonas aeruginosa strain (S-3759). Described as above. The format is cell-based. Particulars: Pseudomonas aeruginosa. Summed up: as §13
Assay [16] has as its system VIM-2-containing Pseudomonas aeruginosa strain (S-3779). The description is as above. The format is cell-based. Conditions: Pseudomonas aeruginosa. A digest of the protocol: as §13
In assay [17] the test system is Pseudomonas aeruginosa strain ATCC27853. The description is as above. It is filed as cell-based. Conditions: Pseudomonas aeruginosa, ATCC27853. A digest of the protocol: as §13
Assay [18] relates to CTX-M-15-containing Escherichia coli strain (TK-1747). The description is as above. Particulars: Escherichia coli. The format is cell-based. Summed up:
as §13

[19] abbreviates: test compound alone (β-lactamase inhibitor N/A).

A word on the MIC: it is the smallest concentration in the dilution series that meets the test's criterion for growth inhibition. Turning to `Nc1nc(/C(=N/OC2(C(=O)O)CCC2)C(=O)N[C@@H]2C(=O)N3C[C@@](C(=O)O)(N4CCN(NC(=O)C(=O)c5ccc(O)c(O)c5Cl)C4=O)S[C@H]23)cs1` [Compound B], the minimal inhibitory concentration (MIC) in [1] (AVI added at 4 μg/mL) was 0.12 µg/mL; in assay [1] (NAC added at 4 μg/mL), less than 0.015 µg/mL; in [1] (ZID added at 4 μg/mL), less than 0.015 µg/mL; in [1] (setting [19]) it was 1 µg/mL; in assay [2] (setting [19]), 1 µg/mL; in assay [2] (with AVI at 4 μg/mL) it was 0.03 µg/mL. The MIC was 0.5 µg/mL in assay [2] (with SBT at 4 μg/mL); 0.12 µg/mL in [2] (with TAZ at 4 μg/mL); 0.03 µg/mL in assay [2] (with VAB at 4 μg/mL); 0.25 µg/mL in assay [3] (AVI added at 4 μg/mL); less than 0.015 µg/mL in assay [3] (NAC added at 4 μg/mL); less than 0.015 µg/mL in assay [3] (ZID added at 4 μg/mL). In addition, the MIC is 0.5 µg/mL in assay [3] (setting [19]); 0.25 µg/mL in [4] (AVI added at 4 μg/mL); less than 0.015 µg/mL in [4] (NAC added at 4 μg/mL); less than 0.015 µg/mL in assay [4] (VAB added at 4 μg/mL); less than 0.015 µg/mL in assay [4] (ZID added at 4 μg/mL); 2 µg/mL in [4] (setting [19]). Besides, the “antibacterial activity in combination with a β-lactamase inhibitor versus without” value in [4] (for all the bacterial strains (strains A to E), summary of Tables 43 to 47) was “higher antibacterial activity”. Further, the FIC index in assay [5] (in combination with AMK) stood at 0.375; in [5] (in combination with CAZ), 0.563; in [5] (in combination with IPM), 0.5; in [5] (in combination with LVFX), 0.625; in assay [5] (in combination with PIPC) it was 0.375; in assay [5] (in combination with PL-B) it was 0.531. Further, the FIC index in assay [5] (in combination with RFP) was 0.313; in [5] (in combination with TMP) it was 0.502; in assay [6] (in combination with CAZ) it was 0.625; in [6] (in combination with MPC), 0.508; in assay [6] (in combination with PIPC) it was 0.53; in assay [6] (in combination with RFP), 0.531. For the same compound, the FIC index in [6] (in combination with TMP) is 0.531; in assay [7] (in combination with AMK), 0.75; in assay [7] (in combination with CAZ) it was 0.625; in assay [7] (in combination with IPM), 0.375; in [7] (in combination with LVFX), 0.563; in [7] (in combination with MPC), less than 0.375. Further, the FIC index in assay [7] (in combination with PIPC) is listed as less than 0.5; in assay [7] (in combination with PL-B) it was 0.156; in assay [7] (in combination with RFP) it was 0.281; in assay [7] (in combination with TMP), 0.375. Also, the “combinational effect with other antibacterial compounds” value in assay [5] (main strains of Gram-negative bacteria, summary of Tables 40 to 42) is recorded as “additive or synergistic effect”. In addition, the “antibacterial activity in combination with two β-lactamase inhibitors” value in [8] is “High antibacterial activity”.
Consider `COCC(NC(=O)C(=O)c1ccc(O)c(O)c1Cl)C(=O)NN1CCN([C@]2(C(=O)O)CN3C(=O)C(NC(=O)/C(=N\OC(C)(C)C(=O)O)c4csc(N)n4)[C@H]3S2)C1=O` (stereo partly drawn) [Example 139, (3R,5R,6R)-6-((Z)-2-(2-aminothiazol-4-yl)-2-(((2-carboxypropan-2-yl)oxy)imino)aceta-mido)-3-(3-((R)-2-(2-(2-chloro-3,4-dihy-droxyphenyl)-2-oxo-acetamido)-3-methoxy-propanamido)-2-oxo-imidazolidin-1-yl)-7-oxo-4-thia-1-azabicyclo-[3.2.0]heptane-3-car-boxylic acid], for which the responders at 40 mg/kg in [9] was no less than 90%. The minimal inhibitory concentration (MIC) stood at 4 µg/mL (≈ 4.75 µM) in [10]; 0.5 µg/mL (≈ 0.594 µM) in assay [11]; 1 µg/mL (≈ 1.19 µM) in assay [12]; 0.5 µg/mL (≈ 0.594 µM) in [13]; 0.12 µg/mL (≈ 0.142 µM) in assay [14]; 2 µg/mL (≈ 2.37 µM) in assay [15]. Further, the minimal inhibitory concentration (MIC) in assay [16] was 1 µg/mL (≈ 1.19 µM); in [17], 1 µg/mL (≈ 1.19 µM); in [18] it was 2 µg/mL (≈ 2.37 µM).
In the case of `CC(C)[C@H](O/N=C(\C(=O)NC1C(=O)N2C[C@@](C(=O)O)(N3CCN(NC(=O)C(=O)c4ccc(O)c(O)c4Cl)C3=O)S[C@H]12)c1csc(N)n1)C(=O)O` (stereo partly drawn) [Example 114, (3R,5R,6R)-6-((Z)-2-(2-aminothiazol-4-yl)-2-(((S)-1-carboxy-2-methylpropoxy)imino)-acetamido)-3-(3-(2-(2-chloro-3,4-dihydroxy-phenyl)-2-oxoaceta-mido)-2-oxoimidazol-idin-1-yl)-7-oxo-4-thia-1-azabicyclo[3.2.0]-heptane-3-carboxylic acid], the responders at 40 mg/kg in assay [9] was no less than 90%. For the same compound, the minimum inhibitory concentration (MIC) in assay [10] is 0.25 µg/mL (≈ 0.331 µM); in [11] it was 1 µg/mL (≈ 1.32 µM); in assay [12], 0.25 µg/mL (≈ 0.331 µM); in [13], 4 µg/mL (≈ 5.3 µM); in assay [14] it was less than 0.06 µg/mL; in assay [15], 2 µg/mL (≈ 2.65 µM). Moreover, the values for the MIC in assay [16], in assay [17] and in assay [18] were 1 µg/mL (≈ 1.32 µM), 2 µg/mL (≈ 2.65 µM) and 0.25 µg/mL (≈ 0.331 µM), respectively.
